Experimental data reported in patent publication US20240299492A1, “COMBINATION THERAPIES WITH SIRP ALPHA-BASED CHIMERIC PROTEINS” (Shattuck Labs, Inc., priority 2021, published 2024).
Entries after “also recorded” stand apart in the source; their conditions may differ.

Tests used:
calreticulin (CRT) [1] = experiment: Surface expression of calreticulin in Kasumi-1 cells (flow cytometry); type: cell-based, human; conditions: 15 μM or 50 μM APR-246, overnight; FIG. 12B
Procedure: (§1) Briefly, the Kasumi-1 human acute myelocytic leukemia (AML) cells were incubated overnight in the presence of vehicle only control, 15 μM APR-246, or 50 μM APR-246. The following day, the Kasumi-1 cells were analyzed by flow cytometry for surface expression of p53 and calreticulin (CRT).

p53 = experiment: Surface expression of p53 in Kasumi-1 cells (flow cytometry); type: cell-based, human; conditions: 15 μM or 50 μM APR-246, overnight; FIG. 12A
Procedure: as §1

[2] = test system: K652 human chronic myelogenous leukemia (CML) cells; experiment: Phagocytosis of K652 cells by human macrophages (flow cytometry): azacitidine and/or SIRPα-Fc-CD40L; type: cell-based; conditions: 0.1 μM azacitidine overnight and/or SIRPα-Fc-CD40L for 4 hours; combination p<0.001 vs control; FIG. 2A
Procedure: (§2) Briefly, the K652 human chronic myelogenous leukemia (CML) cells were labeled with a green fluorescent tracker and treated with vehicle alone control or 0.1 μM azacitidine overnight. The following day, the tumor cells were washed in PBS and then co-cultured with human macrophages with or without the SIRPα-Fc-CD40L chimeric protein for 4 hours at 37° C. in the presence of 5% CO2. After this incubation, the cells were harvested and treated with an anti-CD11b antibody (a macrophage marker) and were analyzed using flow cytometry. Positive phagocytosis was determined by the overlap in signals of tumor (the green fluorescent tracker) and macrophage (anti-CD11b antibody staining). A phagocytosis index was calculated by setting the maximum phagocytosis value to 1, and then normalizing all other replicates accordingly. The phagocytosis index was plotted for the indicated treatments.

Kasumi-3 AML cells = experiment: Phagocytosis of Kasumi-3 AML cells by human macrophages (flow cytometry): azacitidine and/or venetoclax and/or SIRPα-Fc-CD40L; type: cell-based; conditions: 50 μg/ml SIRPα-Fc-CD40L (p<0.05), 10 μM azacitidine (p<0.0001), 1 μM venetoclax (p<0.05); each combination p<0.0001; 4 hours; FIG. 14C
Procedure: Briefly, the Kasumi-3 AML cells were labeled with a green fluorescent tracker and co-cultured with human macrophages and treated with (1) vehicle alone control, (2) 50 μg/ml of the SIRPα-Fc-CD40L chimeric protein, (3) 10 μM azacitidine, (4) 50 μg/ml of the SIRPα-Fc-CD40L chimeric protein+10 μM azacitidine, (5) 1 μM venetoclax, (6) 50 μg/ml of the SIRPα-Fc-CD40L chimeric protein+1 μM venetoclax, or (7) 50 μg/ml of the SIRPα-Fc-CD40L chimeric protein+1 μM venetoclax+10 μM azacitidine. The cells were incubated at 37° C. in the presence of 5% CO2 for 4 hours. After this incubation, the cells were harvested and treated with an anti-CD11b antibody (a macrophage marker) and were analyzed using flow cytometry. Positive phagocytosis was determined by the overlap in signals of tumor (the green fluorescent tracker) and macrophage (anti-CD11b antibody staining). A phagocytosis index was calculated by setting the maximum phagocytosis value to 1, and then normalizing all other replicates accordingly. The phagocytosis index was plotted for the indicated treatments.

CD47 [3] = experiment: Surface expression of CD47 in K652 cells (flow cytometry); type: cell-based, human; conditions: 1 μM, overnight; FIG. 11A
Procedure: (§3) Briefly, the K652 human chronic myelogenous leukemia cells were incubated overnight in the presence of vehicle only control, 1 μM azacitidine or 1 μM pevonedistat. The following day, the K652 cells were analyzed by flow cytometry for surface expression of CD47 or calreticulin (CRT).

annexin V = experiment: Surface expression of annexin V in Kasumi-3 cells (flow cytometry); type: cell-based, human; conditions: increasing amounts, overnight; FIG. 14A
Procedure: (§4) The surface expression of apoptosis marker […] or the […] protein calreticulin (CRT) was studied. Briefly, the Kasumi-3 cells were incubated overnight in the presence of vehicle only control, increasing amounts of azacitidine or venetoclax, or a combination of azacitidine and venetoclax. The following day, the cells were analyzed by flow cytometry for surface expression of annexin or calreticulin (CRT). […] In addition, except for very high concentrations of azacitidine and venetoclax (100 μM each), the apoptosis induced by azacitidine and venetoclax was not additive compared to corresponding single treatments (FIG. 14A). […] In addition, except for very high concentrations of azacitidine and venetoclax (100 μM each), the apoptosis induced by azacitidine and venetoclax was not additive compared to corresponding single treatments (FIG. 14B).

calreticulin (CRT) [4] = experiment: Surface expression of calreticulin in Kasumi-3 cells (flow cytometry), Example 19; type: cell-based, human; conditions: increasing amounts, overnight; FIG. 14B
Procedure: as §4

calreticulin (CRT) [5] = experiment: Surface expression of calreticulin in K652 cells (flow cytometry); type: cell-based, human; conditions: 1 μM, overnight; FIG. 11C
Procedure: as §3

A20 lymphoma cells = experiment: In vivo anti-tumor efficacy, A20 lymphoma cell allograft mouse model; parameters: species or system BALB/C mice; conditions: day 12; 1 mg/kg azacitidine (days 0-4), 4 mg/kg pevonedistat (MLN4924) (days 0-3), 200 μg SIRPα-Fc-CD40L (mSIRPα-Fc-CD40L; days 0, 3, 6), intraperitoneal; FIG. 13C
Procedure: The efficacy of the SIRPα-Fc-CD40L chimeric protein was evaluated in combination with an immune checkpoint inhibitor. Towards that, the ability of an anti-PD-L1 antibody and chimeric proteins to target and reduce tumor volume in vivo was determined. Briefly, BALB/C mice were inoculated with 1×10^6 A20 lymphoma cells. When tumor volumes were approximately 75 to 80 mm^3 (day 0), the mice were randomly distributed in the following treatment groups: (1) vehicle only control, (2) 200 μg of the mouse SIRPα-Fc-CD40L chimeric protein alone, (3) 100 μg an anti-PD-L1 antibody (clone 10F.9G2), and (4) a combination 200 μg of the SIRPα-Fc-CD40L chimeric protein and 100 μg the anti-PD-L1 antibody. […] Tumors were measured with electronic calipers on day 12 and plotted using the GraphPad Prism software. […]
The efficacy of the SIRPα-Fc-CD40L chimeric protein was evaluated in combination with an antimetabolite/DNA synthesis inhibitor. Towards that, the ability of cytarabine and the chimeric protein to target and reduce tumor volume in vivo was determined. […] Tumors were measured with electronic calipers on day 12 and plotted using the GraphPad Prism software. […]
The efficacy of the SIRPα-Fc-CD40L chimeric protein was evaluated in combination with a hypomethylating agent/an epigenetic regulator and/or a protein neddylation inhibitor. […]

[6] = test system: Kasumi-3 human acute myelocytic leukemia (AML) cells; experiment: Phagocytosis of Kasumi-3 cells by human macrophages (flow cytometry): azacitidine and/or SIRPα-Fc-CD40L; type: cell-based; conditions: 0.1 pM azacitidine overnight and/or SIRPα-Fc-CD40L for 4 hours; combination p<0.0001 vs control; FIG. 2B
Procedure: as §2, with “In another experiment,” for “Briefly,”, “Kasumi-3” for “K652”, “acute myelocytic” for “chronic myelogenous”, “(AML)” for “(CML)”, “[…]” for “μM”

CD47 [7] = experiment: Surface expression of CD47 in Kasumi-3 cells (flow cytometry); type: cell-based, human; conditions: 1 μM, overnight; FIG. 11B
Procedure: (§5) In another experiment, the Kasumi-3 human acute myelocytic leukemia (AML) cells were incubated overnight in the presence of vehicle only control, 1 μM pevonedistat (MLN4924) or […]. The following day, the Kasumi-3 cells were analyzed by flow cytometry for surface expression of CD47 or calreticulin (CRT).

calreticulin (CRT) [8] = experiment: Surface expression of calreticulin in Kasumi-3 cells (flow cytometry), Example 17; type: cell-based, human; conditions: 1 μM, overnight; FIG. 11D
Procedure: as §5

SMILES | expression of calreticulin compared to the vehicle only-treated Kasumi-1 cells (calreticulin (CRT) [1]) | expression of p53 compared to the vehicle only-treated Kasumi-1 cells (p53) | level of phagocytosis (phagocytosis index) compared to the control K652 cells [2] | level of phagocytosis (phagocytosis index) compared to the vehicle only-treated Kasumi-3 cells (Kasumi-3 AML cells) | surface expression of CD47 compared to the vehicle only-treated K652 cells (CD47 [3]) | expression of annexin V (apoptosis marker) compared to the vehicle only-treated Kasumi-3 cells (annexin V) | expression of calreticulin compared to the vehicle only-treated Kasumi-3 cells (calreticulin (CRT) [4]) | surface expression of calreticulin, a pro-phagocytic marker, compared to the vehicle only-treated K652 cells (calreticulin (CRT) [5]) | tumor size (A20 lymphoma cells) | level of phagocytosis (phagocytosis index) compared to the control Kasumi-3 cells [6] | surface expression of CD47 compared to the vehicle only-treated Kasumi-3 cells (CD47 [7]) | surface expression of calreticulin, a pro-phagocytic marker, compared to the vehicle only-treated Kasumi-3 cells (calreticulin (CRT) [8])
COCC1(CO)C(=O)C2CCN1CC2 (stereo not drawn) [APR-246] | induced the expression | dose-dependent induction | – | – | – | – | – | – | – | – | – | –
Nc1ncn([C@@H]2O[C@H](CO)[C@@H](O)[C@H]2O)c(=O)n1 [azacitidine] | – | – | increased level of phagocytosis | increased level of phagocytosis | induced the expression | induced the expression of annexin V in Kasumi-3 cells in a dose-dependent manner; also recorded: increased the expression | induced the expression of calreticulin in Kasumi-3 cells in a dose-dependent manner; also recorded: increased the expression | induced the expression | reduction in tumor size | slight increase in the level of phagocytosis | – | –
NS(=O)(=O)OC[C@@H]1C[C@@H](n2ccc3c(N[C@H]4CCc5ccccc54)ncnc32)C[C@@H]1O [pevonedistat (MLN4924), pevonedistat] | – | – | – | – | induced the expression | – | – | induced the expression | reduction in tumor size | – | induced the expression | induced the expression
